Assay results published in the SangsterLogP compilation.
Residues, ends and D or L forms follow the SMILES beside them. *: point of attachment. Cbz = O=C(OCc1ccccc1)*

Assay: method code SF, from Hansch, C. & Leo, A. (1987). Log P database [Dataset]. Pomona College Medicinal Chemistry Project.

SMILES | logP | further results
N#Cc1ccc(C(N)=O)cc1 | 0.48 | –
CCC1(c2ccccc2)C(=O)NCNC1=O | 0.91 | –
CCCNCCC | 1.73 | –
CCCN(CCC)S(=O)(=O)c1ccc(C(=O)O)cc1 | – | logD (pH 1.0): 3.21
CCOc1ccc(OC(C)=O)cc1 | 1.95 | –
CCC1(CC)OC(=O)c2ccccc21 | 2.69 | –
O=C(O)CONC(=O)c1ccccc1 | -0.27 | –
O=C1C(N2CCOCC2)=C(N2CC2)C(=O)C(N2CCOCC2)=C1N1CC1 | 0.52 | –
OC(c1ccccc1)c1ccccn1 (stereo not given) | – | logD (pH 8.0): 1.52
CC(=O)OC(OC(C)=O)c1ccc([N+](=O)[O-])o1 | – | logD (pH 8.0): 1.06
C=C(C)C1Cc2c(ccc3c2OC2COc4cc(OC)c(OC)cc4C2C3=O)O1 (stereo not given) | 4.1 | –
CNP(=O)(OC)Oc1ccccc1Cl (stereo not given) | 1.61 | –
CCCCCC(C)O (stereo not given) | 2.31 | –
CCC(C)NC(=O)/C(F)=C\c1ccccc1 (stereo not given) | 3.1 | –
CC(=O)OC[C@]12CCC(C)=C[C@H]1O[C@@H]1[C@H](O)[C@@H](OC(C)=O)[C@@]2(C)[C@]12CO2 | – | logD (pH 7.4): 0.91
c1ccn2nnnc2c1 | -0.09 | –
NC(=O)c1ncccc1O | – | logD (pH 7.4): 0.65
c1ccc2[nH]c(CCCCCCc3nc4ccccc4[nH]3)nc2c1 | 1.66 | –
CN(C)C(=S)Nc1ccccc1 | 1.04 | –
O=[N+]([O-])c1ccc(CCO)cc1 | 1.12 | –
CN(C)c1ccc([N+](=O)[O-])cc1 | – | logD (pH 7.0): 2.27
CCCCC1CC(C(=O)NC(C(C)Cl)C2OC(SC)C(O)C(O)C2O)N(CC)C1 (stereo not given) | – | logD (pH 12.0): 3.21
CCCCNc1c(C)n(C)c(=O)n(-c2ccccc2)c1=O | – | logD (pH 7.4): 1.69
Cc1ccc(Cl)cc1C | 3.82 | –
COc1ccc(OC(=O)N(C)C)cc1 | 1.53 | –
O=[N+]([O-])C=Cc1ccoc1 | 1.41 | –

SMILES | logP | further results
c1cnc2ccc3ncccc3c2c1 | 2.05 | –
CNC(=O)COc1ccccc1 | 1.02 | –
N=c1ccn2c(n1)OC1C(O)C(CO)OC12 (stereo not given) | – | logD (pH 11.0): -2.37
NC(=O)N=[N+]([O-])c1ccccc1 | 0.58 | –
CC(C)c1ccccc1OC(=O)N(C)C | 2.65 | –
CCc1ccsc1 | 2.82 | –
COc1ccc(/N=N/N(C)C(C)=O)cc1 | 2.61 | –
CN(C(=O)CCOS(C)(=O)=O)c1ccc(S(=O)(=O)N(C)C)cc1 | -0.68 | –
OC1OC[C@H](O)[C@H](O)[C@H]1O (stereo not given in full) | -3.02 | –
CN(C)/N=N/c1ccccc1CO | – | logD (pH 12.0): 1.73
Nc1ncnc2nc(-c3cccc([N+](=O)[O-])c3)[nH]c12 | – | logD (pH 7.3): 1.93
O=C(Nc1ccccc1)C(F)(F)F | 2.21 | –
OCCOc1c(Br)cc(Br)cc1Br | 3.42 | –
Oc1ccnc2cc(C(F)(F)F)ccc12 | 2.05 | –
CCc1ccco1 | 2.4 | –
O=[N+]([O-])c1ccc(OCCn2ccnc2)cc1 | 1.69 | –
CC(=O)Oc1ccccc1[N+](=O)[O-] | 1.55 | –
CCOC(=O)C(=Cc1ccc(OC)c(OC)c1)C(=O)OCC | 2.89 | –
CCC1(c2ccccc2)NC(=O)NC1=O (stereo not given) | 1.53 | –
CC(C)(C)[N+](=O)[O-] | 1.01 | –
CCOC(=O)C(=Cc1ccc(F)cc1)C(=O)OCC | 3.1 | –
CSc1cccc(/N=N/N(C)C)c1 | 2.98 | –
COc1ccccc1C(=O)c1ccncc1 | 1.86 | –
O=C(O)COc1ccccc1O | 0.85 | –
O=C(COc1ccccc1)N1CCCCC1 | 1.81 | –
Cc1nnc(C)s1 | 0.03 | –

SMILES | logP | further results
CC(C)CCC(=O)c1ccoc1 | 2.76 | –
O=S1(=O)NC(C2CC2)=Nc2cc(Cl)ccc21 | 1.98 | –
CNP(=O)(OC)Oc1ccc(SC)cc1 (stereo not given) | 1.81 | –
CN(C)c1ncnc2sccc12 | 1.82 | –
NC(=O)NCc1ccccc1 | 0.73 | –
COCCC(=O)N(C)c1ccc(S(=O)(=O)N(C)C)cc1 | 0.33 | –
CN(C)c1cnccn1 | 0.96 | –
NC(=O)Oc1ccccc1 | 1.08 | –
NC(=O)c1ccco1 | – | logD (pH 7.0): -0.11
CCOc1ccccc1 | 2.51 | –
O=[N+]([O-])c1ccccc1C(F)(F)F | 2.58 | –
O=[N+]([O-])c1ccc(C=Cc2nc3ccccc3[nH]2)o1 | 1.4 | –
O=[N+]([O-])CCO | -0.42 | –
COc1ccc(C(=O)N(C)C)cc1 | 0.96 | –
O=C1CN=C(c2ccc[nH]2)c2cc(Cl)ccc2N1 | 2.59 | –
O=c1cc[nH]c2ccccc12 | 0.58 | –
N#Cc1ccc(OC(=O)CNC(=O)c2ccccc2)cc1 | 2.1 | –
N#CN=[N+]([O-])c1cccc([N+](=O)[O-])c1 | 1.45 | –
c1ccc(-c2cccs2)cc1 | 3.74 | –
O=P1(NCCCl)OCCCN1CCCl (stereo not given) | 0.86 | –
CC[N+](=O)[O-] | 0.18 | –
CC(C)CN(CC(C)C)C(=O)C=Cc1ccc2c(c1)OCO2 | 4.37 | –
O=S1(=O)NC(C2CC=CC2)=Nc2ccccc21 | 1.53 | –
COc1ccc(C(C)=O)c(O)c1 | 1.98 | –
CC1CCCN(N=O)C1=O (stereo not given) | -0.66 | –
NC(=O)c1ccc(Cl)cc1 | 1.53 | –

SMILES | logP | further results
NC(=O)CF | -1.05 | –
Cc1c(N(C)C)c(=O)n(C)c(=O)n1C | – | logD (pH 7.4): 0.99
N#CN/C(N)=N/c1ccccc1 | 1.05 | –
CN(C)C=CCCc1cccnc1 | – | logD (pH 11.0): 1.68
CCC(=Cc1ccccc1)[N+](=O)[O-] | 2.86 | –
Cn1c(N)cc2ccccc21 | – | logD (pH 8.0): 1.72
O=S1(=O)NC(C(F)(F)F)=Nc2cc(Cl)ccc21 | 1.65 | –
CN(C)c1cccc(C(N)=O)c1 | 0.95 | –
CC(C)(C)C(=O)Nc1ccccc1 | 1.99 | –
CSc1ccccc1/N=N/N(C)C | – | logD (pH 7.4): 3.13
CC(=O)Oc1ccc(C(C)=O)cc1 | – | logD (pH 7.0): 1.29
O=C(CNC(=O)c1ccccc1)Oc1ccccc1 | 2.31 | –
CC(=O)Oc1ccccc1C(C)C | 2.78 | –
O=c1[nH]cc(Br)c(=O)[nH]1 | -0.21 | –
O=C(NCc1ccccc1)c1ccco1 | 1.81 | –
NC(=O)c1ccc(N)cc1 | -0.41 | –
O=[N+]([O-])c1ccc2cccnc2c1 | 1.82 | –
NC(=S)N/N=C/c1ccc(O)cn1 | – | logD (pH 7.4): 0.69
CCOC(=O)C(=Cc1cccc(OCC)c1)C(=O)OCC | 3.39 | –
CC(=O)Nc1ccc(Oc2ccccc2)cc1 | 3.13 | –
O=C(O)COc1ccc(Cl)c(I)c1 | 3.1 | –
CCC(C)(C)C | 3.82 | –
CS(=O)(=O)Oc1ccccc1 | 1.25 | –
Nc1ccccc1S | 1.43 | –
NC(=O)Nc1ccc(C(O)C(CO)NC(=O)C(Cl)Cl)cc1 (stereo not given) | -0.6 | –
COc1cc2c(c(OC)c1OC)-c1ccc(OC)c(=O)cc1[C@@H](N)CC2 | 0.67 | –

SMILES | logP | further results
CCCCCCCCN(CCCCCCCC)N=Cc1c2c(O)c3c(O)c(C)c4c(c3c1O)C(=O)C(C)(O/C=C\C(OC)C(C)C(OC(C)=O)C(C)C(O)C(C)C(O)C(C)/C=C\C=C(\C)C(=O)N2)O4 (stereo not given) | 3.6 | –
Nc1nc(=O)c2[nH]nnc2[nH]1 | – | logD (pH 4.2): -0.71
N=c1ccccn1O | – | logD (pH 7.4): -0.87
CC1=Nc2ccc(I)cc2S(=O)(=O)N1 | 1.61 | –
CN(C)/N=N/c1cc(C#N)cc(C#N)c1 | 2.18 | –
CC(CN(C)C)CN1c2ccccc2Sc2ccccc21 (stereo not given) | 4.71 | –
NC1=NC(C(F)(F)F)(C(F)(F)F)NC1(C(F)(F)F)C(F)(F)F | 3.35 | –
CCOC(=O)C(=Cc1cccc(Cl)c1)C(C)=O | 2.97 | –
CCN(CC)c1ccc(/N=N/c2ccc(Br)cn2)c(O)c1 | 4.23 | –
CC(=O)Nc1ccc(C(F)(F)F)cc1 | 2.52 | –
COc1ccc2[nH]c(C(O)C(O)c3nc4cc(OC)ccc4[nH]3)nc2c1 (stereo not given) | 1.05 | –
CON=C(C(=O)NC1C(=O)N2C(C(=O)OCOC(=O)C(C)(C)C)=C(CSc3nnnn3C)CSC12)c1csc(N)n1 (stereo not given) | – | logD (pH 6.6): 1.74
CCOS(=O)(=O)OCC | 1.14 | –
Cc1oc2ccccc2c(=O)c1C | 2.31 | –
CC(=O)Oc1ccccc1Br | 2.2 | –
CN(C(=O)CCSC#N)c1ccc(S(=O)(=O)N(C)C)cc1 | 0.84 | –
CC(C)(C)c1ccccc1OCC(=O)O | 3.33 | –
NC(=S)NN=Cc1ccccc1 | 1.86 | –
O=c1[nH]ncc2ccccc12 | 0.75 | –
NNC(=O)NN=Cc1ccccc1 | 0.81 | –
CC(=O)Oc1ccccc1C | 1.93 | –
CCC(C)NC(=O)/C=C/c1ccccc1 (stereo not given) | 2.85 | –
COc1nnccc1N(C)C | 0.9 | –
CN(C)CCC1CN(C)C(=S)c2cccnc2O1 (stereo not given) | 1.08 | –
c1ccc(OCCOc2ccccc2)cc1 | 3.81 | –
NC(=O)c1cccnc1N | – | logD (pH 7.0): 0.88

SMILES | logP | further results
CC(C)C(NC(=O)OCc1ccccc1)C(=O)NC(Cc1ccc(O)cc1)C(=O)O (stereo not drawn) (Cbz-Val-Tyr-OH; configuration not given here) | 2.43 | –
NC(=O)NN=CCCc1ccccc1 | 2.32 | –
CC(=O)Nc1ccc2c(c1)[nH]c1ccccc12 | 3.02 | –
CCCCCCCOC(=O)c1ccc(O)cc1 | 4.83 | –
CCOP(=O)(OCC)Oc1ccc(SC)cc1C | 3.21 | –
CCCCCCC1OC(=O)c2ccccc21 (stereo not given) | 3.55 | –
O=C1CC(=O)NC(=O)N1 | – | logD (pH 2.0): -1.41
OC12CC3CC(CC(C3)C1)C2 | 2.14 | –
CN(C(=O)COc1ccccc1)c1ccccc1 | 2.25 | –
NC(=O)Nc1cnc2ccccc2n1 | 1.3 | –
CCC(C)c1ccccc1OCC(=O)O (stereo not given) | 3.32 | –
Cc1ccccc1C(O)c1ccccc1 (stereo not given) | 3.06 | –
CN(C)C(=O)Nc1ccc(Br)cc1 | 2.19 | –
CCOC(=O)C(=Cc1ccc(Cl)cc1)C(=O)OCC | 3.96 | –
CCOC(=O)/C(=C/c1cccc(F)c1)C(C)=O | 2.46 | –
CCOCCOC(=O)C(C#N)=CC(C)(C)NCc1ccc(Cl)cc1 | 4.05 | –
CCOC(=O)C(=Cc1cccc(OC)c1)C(C)=O | 2.34 | –
O=CNc1ccc(F)cc1 | – | logD (pH 7.0): 1.27
CS(=O)(=O)Oc1ccccc1Cc1cnc(N)nc1N | – | logD (pH 13.0): 0.71
CCC(=O)O[C@]1(C(=O)CO)[C@H](C)C[C@H]2[C@@H]3C[C@H](F)C4=CC(=O)C(Cl)=C[C@]4(C)[C@@]3(F)[C@@H](O)C[C@@]21C | 2.99 | –
c1ccc(Cc2nn[nH]n2)cc1 | – | logD (pH 2.2): 1.36
CCOP(=S)(OCC)Oc1ccc(SC)cc1C | 4.16 | –
O=C(CCc1ccccc1)Nc1ccc(Cl)c(Cl)c1 | 4.85 | –
CC1(C)N=C(N)N=C(N)N1c1cccc(C#N)c1 | – | logD (pH 13.0): -0.24
CCC(C)c1cnc(CC(C)C)c(=O)n1O (stereo not given) | 1.81 | –
